# Target: T1, cloned human V1a receptor (Homo sapiens, UniProt P37288)
# T1 construct: host or cells: human brain astrocytoma 1321N1 cells
# Assay: in vitro functional calcium mobilisation assay (FLIPR), antagonist activity, 1321N1 cells, 250 pM AVP
# Format: cell-based
# Settings: functional pKi derived from pIC50 (Equation 1), FLIPR Ca2+ mobilisation, 1321N1 cells expressing cloned human V1a receptor
# Method: The primary assay which may be used to determine the ability of the compounds of formula (1) to inhibit the vasopressin V1a receptor is an in vitro functional calcium mobilisation assay (FLIPR) that measures antagonist activity at a cloned human V1a receptor. The assay is described below.
# The antagonist activity of compounds of formula (1) were determined in a Calcium (Ca2+) mobilisation assay using whole cells (human brain astrocytoma 1321N1 cells, ex Perkin Elmer) genetically modified to stably express a cloned human V1a receptor. Dose response curves were determined by displacement of a single concentration of agonist (250 pM AVP, ex Sigma) with increasing concentrations of compound. A pIC50 value is determined by non-linear regression to a 4-parameter logistic equation and a functional pKi (fpKi) derived using Equation 1.
# where A=agonist single conc, and A50=the agonist EC50.
# T1 sequence (P37288 whole entry): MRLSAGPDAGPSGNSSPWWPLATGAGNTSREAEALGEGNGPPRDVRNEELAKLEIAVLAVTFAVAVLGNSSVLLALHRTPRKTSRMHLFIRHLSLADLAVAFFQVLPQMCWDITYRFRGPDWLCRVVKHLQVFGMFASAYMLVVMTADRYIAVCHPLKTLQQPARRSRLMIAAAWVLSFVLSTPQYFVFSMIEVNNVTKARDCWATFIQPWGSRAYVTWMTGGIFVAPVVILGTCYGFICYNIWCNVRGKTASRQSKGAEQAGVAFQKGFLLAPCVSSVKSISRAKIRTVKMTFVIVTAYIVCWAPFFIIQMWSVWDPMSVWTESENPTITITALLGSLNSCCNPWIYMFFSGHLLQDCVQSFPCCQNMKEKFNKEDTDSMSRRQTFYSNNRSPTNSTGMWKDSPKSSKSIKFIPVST
row,Mean fpKi (Human V1a),Compound
1,7.35,"(5H,11H-Benzo[e]pyrrolo[1,2-a][1,4]diazepin-10-yl)-[1-(2-nitro-phenyl)-piperidin-4-yl]-methanone [Example 172]"

# Same assay, conditions: functional pKi derived from pIC50 (Equation 1), FLIPR Ca2+ mobilisation, 1321N1 cells expressing cloned human V1a receptor, read-out: Mean fpKi (Human V1a) (converted)
row,Compound,Ki
1,Cn1ncc2c1Nc1cc(Cl)ccc1N(C(=O)C1CCN(c3ccccn3)CC1)C2 [Example 115],6.92 nM
2,Cc1cccnc1N1CCC(C(=O)N2Cc3cnn(C)c3Nc3cc(Cl)ccc32)CC1 [Example 116],2.69 nM
3,Cc1ccnc(N2CCC(C(=O)N3Cc4cnn(C)c4Nc4cc(Cl)ccc43)CC2)c1 [Example 117],2 nM
4,Cc1ccc(N2CCC(C(=O)N3Cc4cnn(C)c4Nc4cc(Cl)ccc43)CC2)nc1 [Example 118],1.74 nM
5,CCn1ncc2c1Nc1cc(Cl)ccc1N(C(=O)C1CCN(c3ncccc3C)CC1)C2 [Example 120],0.912 nM
6,CCn1ncc2c1Nc1cc(Cl)ccc1N(C(=O)C1CCN(c3cc(C)ccn3)CC1)C2 [Example 121],0.427 nM
7,Cc1cccc(N2CCC(C(=O)N3Cc4cnn(C)c4Nc4cc(Cl)ccc43)CC2)n1 [Example 125],5.89 nM
8,CCn1ncc2c1Nc1cc(Cl)ccc1N(C(=O)C1CCN(c3cccc(C)n3)CC1)C2 [Example 126],1.2 nM
9,Cc1ccc2c(c1)Nc1c(cnn1C)CN2C(=O)C1CCN(c2ccccc2F)CC1 [Example 127],2 nM
10,Cc1cccc(N2CCC(C(=O)N3Cc4cnn(C)c4Nc4cc(C)ccc43)CC2)c1 [Example 128],1.32 nM
11,Cc1ccc(N2CCC(C(=O)N3Cc4cnn(C)c4Nc4cc(C)ccc43)CC2)cc1 [Example 129],0.324 nM
12,COc1ccc(N2CCC(C(=O)N3Cc4cnn(C)c4Nc4cc(C)ccc43)CC2)cc1 [Example 131],3.09 nM
13,CCc1ccc(N2CCC(C(=O)N3Cc4cnn(C)c4Nc4cc(C)ccc43)CC2)cc1 [Example 132],0.741 nM
14,Cn1ncc2c1Nc1cc(Cl)ccc1N(C(=O)C1CCN(c3ccccc3F)CC1)C2 [Example 134],1.74 nM
15,Cc1cccc(N2CCC(C(=O)N3Cc4cnn(C)c4Nc4cc(Cl)ccc43)CC2)c1 [Example 135],1.29 nM
16,Cc1ccc(N2CCC(C(=O)N3Cc4cnn(C)c4Nc4cc(Cl)ccc43)CC2)cc1 [Example 136],0.617 nM
17,COc1cccc(N2CCC(C(=O)N3Cc4cnn(C)c4Nc4cc(Cl)ccc43)CC2)c1 [Example 137],1.78 nM
18,COc1ccc(N2CCC(C(=O)N3Cc4cnn(C)c4Nc4cc(Cl)ccc43)CC2)cc1 [Example 138],2.63 nM
19,Cc1ccc2c(c1)Nc1c(cnn1C)CN2C(=O)C1CCN(c2ccc(C)nc2)CC1 [Example 141],5.13 nM
20,Cc1ccc(N2CCC(C(=O)N3Cc4cnn(C)c4Nc4cc(Cl)ccc43)CC2)cn1 [Example 142],2.88 nM
21,Cc1ccc(N2CCC(C(=O)N3Cc4cccn4Cc4ccccc43)CC2)nc1 [Example 145],15.1 nM
22,O=C(C1CCN(c2cccnc2)CC1)N1Cc2cccn2Cc2ccccc21 [Example 146],31.6 nM

row,Compound,Ki
1,O=C(C1CCN(c2ccncc2)CC1)N1Cc2cccn2Cc2ccccc21 [Example 147],1480 nM
2,O=C(C1CCN(c2ccccn2)CC1)N1Cc2cccn2Cc2cc(F)ccc21 [Example 150],1.91 nM
3,O=C(C1CCN(c2ccccc2)CC1)N1Cc2cccn2Cc2cc(F)ccc21 [Example 151],0.794 nM
4,O=C(C1CCN(c2ccccc2F)CC1)N1Cc2cccn2Cc2ccccc21 [Example 154],1.48 nM
5,O=C(C1CCN(c2cccc(F)c2)CC1)N1Cc2cccn2Cc2ccccc21 [Example 155],4.57 nM
6,O=C(C1CCN(c2ccccc2Cl)CC1)N1Cc2cccn2Cc2ccccc21 [Example 157],7.59 nM
7,O=C(C1CCN(c2ccc(Cl)cc2)CC1)N1Cc2cccn2Cc2ccccc21 [Example 158],4.79 nM
8,Cc1ccccc1N1CCC(C(=O)N2Cc3cccn3Cc3ccccc32)CC1 [Example 159],10.5 nM
9,Cc1cccc(N2CCC(C(=O)N3Cc4cccn4Cc4ccccc43)CC2)c1 [Example 160],3.16 nM
10,COc1cccc(N2CCC(C(=O)N3Cc4cccn4Cc4ccccc43)CC2)c1 [Example 163],5.62 nM
11,COc1ccc(N2CCC(C(=O)N3Cc4cccn4Cc4ccccc43)CC2)cc1 [Example 164],14.1 nM
12,CCc1ccc(N2CCC(C(=O)N3Cc4cccn4Cc4ccccc43)CC2)cc1 [Example 165],1.55 nM
13,CCCc1ccc(N2CCC(C(=O)N3Cc4cccn4Cc4ccccc43)CC2)cc1 [Example 166],3.89 nM
14,CC(C)c1ccc(N2CCC(C(=O)N3Cc4cccn4Cc4ccccc43)CC2)cc1 [Example 167],3.63 nM
15,O=C(C1CCN(c2cccc(-c3ccccc3)c2)CC1)N1Cc2cccn2Cc2ccccc21 [Example 168],151 nM
16,O=C(C1CCN(c2ccc(C(F)(F)F)cc2)CC1)N1Cc2cccn2Cc2ccccc21 [Example 169],30.9 nM
17,N#Cc1cccc(N2CCC(C(=O)N3Cc4cccn4Cc4ccccc43)CC2)c1 [Example 170],25.7 nM
18,N#Cc1ccc(N2CCC(C(=O)N3Cc4cccn4Cc4ccccc43)CC2)cc1 [Example 171],214 nM
19,O=C(C1CCN(c2cccc([N+](=O)[O-])c2)CC1)N1Cc2cccn2Cc2ccccc21 [Example 173],17 nM
20,O=C(C1CCN(c2ccc([N+](=O)[O-])cc2)CC1)N1Cc2cccn2Cc2ccccc21 [Example 174],162 nM
21,"NCc1ccccc1N1CCC(C(=O)N2Cc3cccn3Cc3ccccc32)CC1 [Example 177, [1-(2-Aminomethyl-phenyl)-piperidin-4-yl]-(5H,11H-benzo[e]pyrrolo[1,2-a][1,4]diazepin-10-yl)-methanone]",28.8 nM

# Next, values leading:
row,Ki,Compound
1,19.1 nM,COc1cccnc1N1CCC(C(=O)N2Cc3cnn(C)c3Nc3cc(Cl)ccc32)CC1 [Example 119]
2,0.603 nM,CCn1ncc2c1Nc1cc(Cl)ccc1N(C(=O)C1CCN(c3ccc(C)cn3)CC1)C2 [Example 122]
3,2 nM,Cc1ccc(N2CCC(C(=O)N3Cc4cnn(-c5ccccc5)c4Nc4cc(Cl)ccc43)CC2)nc1 [Example 123]
4,9.55 nM,Cc1ccc2c(c1)Nc1c(cnn1C)CN2C(=O)C1CCN(c2cccc(C)n2)CC1 [Example 124]
5,5.37 nM,Cc1ccc2c(c1)Nc1c(cnn1C)CN2C(=O)C1CCN(c2ccc(C(F)(F)F)cc2)CC1 [Example 133]
6,0.912 nM,CCc1ccc(N2CCC(C(=O)N3Cc4cnn(C)c4Nc4cc(Cl)ccc43)CC2)cc1 [Example 139]
7,8.51 nM,Cn1ncc2c1Nc1cc(Cl)ccc1N(C(=O)C1CCN(c3ccc(C(F)(F)F)cc3)CC1)C2 [Example 140]
8,117 nM,O=C(C1CCN(c2ncccn2)CC1)N1Cc2cccn2Cc2ccccc21 [Example 143]
9,3.16 nM,O=C(C1CCN(c2ccccn2)CC1)N1Cc2cccn2Cc2ccccc21 [Example 144]
10,28.2 nM,O=C(C1CCN(c2cnccn2)CC1)N1Cc2cccn2Cc2ccccc21 [Example 148]
11,0.589 nM,O=C(C1CCN(c2ccccc2)CC1)N1Cc2cccn2Cc2ccccc21 [Example 149]
12,0.631 nM,Cc1ccc2c(c1)Cn1cccc1CN2C(=O)C1CCN(c2ccccn2)CC1 [Example 152]
13,0.234 nM,Cc1ccc2c(c1)Cn1cccc1CN2C(=O)C1CCN(c2ccccc2)CC1 [Example 153]
14,1.45 nM,O=C(C1CCN(c2ccc(F)cc2)CC1)N1Cc2cccn2Cc2ccccc21 [Example 156]
15,1.12 nM,Cc1ccc(N2CCC(C(=O)N3Cc4cccn4Cc4ccccc43)CC2)cc1 [Example 161]
16,3.16 nM,COc1ccccc1N1CCC(C(=O)N2Cc3cccn3Cc3ccccc32)CC1 [Example 162]
17,3.98 nM,"Nc1ccccc1N1CCC(C(=O)N2Cc3cccn3Cc3ccccc32)CC1 [Example 175, [1-(2-Amino-phenyl)-piperidin-4-yl]-(5H,11H-benzo[e]pyrrolo[1,2-a][1,4]diazepin-10-yl)-methanone]"
18,2.51 nM,Nc1ccc(N2CCC(C(=O)N3Cc4cccn4Cc4ccccc43)CC2)cc1 [Example 176]
19,97.7 nM,NCc1ccc(N2CCC(C(=O)N3Cc4cccn4Cc4ccccc43)CC2)cc1 [Example 178]

# System: dysmenorrhoea
# Assay: not given
# Settings: clinical study, compared to patients taking placebo; cited from earlier work
Compound,amount of additional pain-killer taken,pain
COc1ccc(S(=O)(=O)N2c3ccc(Cl)cc3[C@](O)(c3ccccc3Cl)[C@@H]2C(=O)N2CCC[C@H]2C(N)=O)cc1OC [SR49059],dose-related decrease in the amount of additional pain-killer taken,dose-related decrease in pain
